Read-outs that look alike come from different tables or passages of the source.
Key:
fetal islet β cells = test: SNP-induced apoptosis in cultured fetal islets (TUNEL, confocal microscopy); type: cell-based, Wistar rats; settings: SNP 100 μmol/l
Procedure: Animals and Diets. Adult virgin female Wistar rats were caged overnight with males and copulation was verified the next morning. Animals were maintained at 25° C. with a 10 h-14 h dark-light cycle. Pregnant rats were divided into two groups and fed one of the following isocaloric diets: either a control diet (C) containing 20% protein or a low protein diet (LP) containing 8% protein. The composition of the diet was as described previously by Snoeck et al. 1990 (Biol. Neonate 57, 107-118). The diets were purchased from Hope Farms (Woerden, Holland). Animals in both the groups had free access to water at all times. At 21.5 days of gestation, females were sacrificed by decapitation and fetuses removed.
Islet culture and treatment. Fetal islets were isolated as described by Mourmeaux et al. 1985 (Molecular and Cellular Endocrinology 39:237-246). Islets were cultured in 35 mm Petri-dishes (Falcon plastics, Los Angeles, Calif.) in RPMI 1640 medium (Gibco, Grand Island, N.Y., USA) with 10% Fetal Bovine Serum and antibiotics (penicillin 200 U/ml, streptomycin 0.2 mg/ml). Petri dishes were incubated at 37° C. with 5% CO2 in air. The culture medium was changed daily after the second day. On the 5th day of culture, islets were rinsed twice with serum free DME/F12 medium (1:1, v/v, Gibco, Paisley, Scotland) and subsequently incubated for 42 hours in this medium. […]
TUNEL method for evaluating apoptosis. Apoptosis was evaluated by the TUNEL method described herein, and visualized with confocal microscopy. Cultured islets were fixed in methanol and stored at −20° C. until analysis. The tissue was then washed with phosphate buffered saline (PBS) for 3 min, and a terminal deoxynucleotidyl transferase (TdT) reaction buffer (50 μl) was added. The 50 μl of TdT solution was prepared using 10 μl of 5× concentrated buffer solution (1 mol/l potassium cacodylate; 125 mmol/l Tris-HCl, pH 6.6; 1.26 mg bovine serum albumin). Cobalt chloride (5 μl of 25 mmol/l), 0.5 μl (12.5 units) of TdT (both from Boehringer Mannheim, Germany), and 0.25 nmoles of BODIPY-FL-X-14-dUTP (Molecular Probes, Eugene, Oreg. USA) were added, along with distilled water, up to 50 μl. Islets were incubated in Petri dishes with the TdT reaction buffer for 60 min at 37° C., then rinsed twice with 15 mmol/l EDTA (pH 8.0) in PBS and once with 0.1% Triton X-100 in PBS. Then, 2 ml of PBS containing 2.5 μg/ml of propidium iodide (Molecular Probes, Eugene, Oreg. USA) was added to the dishes for 5 min. Finally, islet cells were washed with 15 mmol/l EDTA (pH 8.0). Islet cells were then double-labelled for apoptotic nuclei, showing the BODIPY-FL-dUTP label in […] and total nuclei with propidium iodide in red.
Confocal microscopy. Staining probes were visualised through a confocal laser scanning microscopy system (MRC-1024 UV; BIO-RAD, UK) equipped with Argon ion and Krypton/Argon ion lasers. BODIPY-FL was excited at 503 nm, ethidium bromide at 510 nm, propidium iodide at 536 nm and Hoechst 33342 at 346 nm. The emissions were recorded respectively at 522/32 nm, 605/32 nm and 455/30 nm. Four to six optical sections were collected at every 15 μm through the islet. The number of BODIPY-FL-positive or ethidium bromide-positive nuclei were reported and expressed as a percentage of the total number of nuclei.
Animals, diets, and fetal islet isolation procedures were conducted as described in Example 1.

[1] = SIN-1
Procedure: Chemiluminescence measurements. Luminol (5-amino-2,3-dihydro-1-4-phtalazinedione) at 400 μmol/l (Sigma Chemical Co.), taurine (0.3 or 3 mmol/l), methionine (0.1 or 1 mmol/l) and β-alanine (0.3 or 3 mmol/l) stock solutions were prepared in PBS. Sydnonimine (SIN-1), also known as 3-morpholinosydnonimine, a source of peroxynitrite, was purchased from Sigma Chemical Co. SIN-1 was prepared as 100 μmol in 1 mol/l NaOH. A reaction was initiated by simultaneous injection of luminol and SIN-1 into wells containing PBS either alone or with supplemental amino acid levels as noted above. Chemiluminescence emitted by luminol in the presence of peroxynitrite was measured every 30 seconds over 20 minutes in a chemifluorophotometer (MicroLumat LB96P, EG&G BERTHOLD), and was quantified as light intensity (10^8 RLU).
Nitric oxide is a reactive free radical which leads to peroxynitrite formation, another reactive free radical, by interaction with superoxide (NO+OO^−→ONOO^−). […] Luminol-derived chemiluminescence induced by peroxynitrite produced by the decomposition of sydnonimine (SIN-1) was evaluated to investigate the possibility that taurine quenched the peroxynitrite formed from NO.

fetal islet cells = test: IL1β-induced apoptosis in cultured fetal islets (TUNEL); type: cell-based, Wistar rats; settings: 50 U/ml IL 1β for 24 hours; C and LP groups
Procedure: The effect of in vitro taurine on the effect of IL1β-induced apoptosis was assessed. Fetal islets were isolated as described above in Example 1. On the 5th day of culture, islets were rinsed twice with serum free DME/F12 medium (1:1, v/v, Gibco, Paisley, Scotland) and were incubated in this medium supplemented with taurine at 0.3 or 3 mmol/l for 48 hours. For the final 24 hours of this incubation, IL1β (Endogen, Woburn, Mass.) was added to the incubation medium at a level of 50 U/ml. Apoptosis was quantified by confocal microscopy using TUNEL method, as outlined in Example 1.

In the case of `CC(=O)N(O)CCCCCNC(=O)CCC(=O)N(O)CCCCCNC(=O)CCC(=O)N(O)CCCCCN` [DFO, desferioxamine, reference compound], the “reduction of the cell death induced by SNP” value (fetal islet β cells; LP and C islets, data not shown) is reported as “about 30%”.
In the case of `CSCC[C@H](N)C(=O)O` [methionine, L-Methionine], the apoptosis rate (fetal islet β cells; 0.1 mmol/l methionine, regardless of diet) is reported as “significantly decreased”, the apoptosis rate (fetal islet β cells; 1.0 mmol/l methionine vs physiological concentration) is reported as “did not provide additional protection” and the “luminol chemiluminescence (peroxynitrite quenching)” value ([1]; methionine 0.1 or 1 mmol/l) is reported as “No change”.
With `NCCC(=O)O` [β-alanine, 3-aminopropanoic acid, reference compound] the “rate of apoptosis / protection against damage induced by NO” value (fetal islet β cells; β-alanine 0.3 or 3 mmol/l) was “no protective effect” and the “luminol chemiluminescence (peroxynitrite quenching)” value ([1]; β-alanine 0.3 or 3 mmol/l) was “no change”.
With “IL 1β: macrophage-derived proinflammatory cytokine used to induce islet cell apoptosis” the “apoptosis level of fetal islets” value (fetal islet cells) was “increased the apoptosis level”.

Reference: US20030180345A1, “Compositions and methods for inhibiting islet dysfunction and autoimmune disorders” (priority 2000, published 2003)
